Experimental findings from US20110182850A1, “ORGANIC COMPOUNDS AND THEIR USES” (priority 2009, published 2011) are described below.

T1 sequence (P26664 1658-1711): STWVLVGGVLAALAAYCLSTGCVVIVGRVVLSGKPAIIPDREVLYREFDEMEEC
T1 sequence (P26664 1027-1657): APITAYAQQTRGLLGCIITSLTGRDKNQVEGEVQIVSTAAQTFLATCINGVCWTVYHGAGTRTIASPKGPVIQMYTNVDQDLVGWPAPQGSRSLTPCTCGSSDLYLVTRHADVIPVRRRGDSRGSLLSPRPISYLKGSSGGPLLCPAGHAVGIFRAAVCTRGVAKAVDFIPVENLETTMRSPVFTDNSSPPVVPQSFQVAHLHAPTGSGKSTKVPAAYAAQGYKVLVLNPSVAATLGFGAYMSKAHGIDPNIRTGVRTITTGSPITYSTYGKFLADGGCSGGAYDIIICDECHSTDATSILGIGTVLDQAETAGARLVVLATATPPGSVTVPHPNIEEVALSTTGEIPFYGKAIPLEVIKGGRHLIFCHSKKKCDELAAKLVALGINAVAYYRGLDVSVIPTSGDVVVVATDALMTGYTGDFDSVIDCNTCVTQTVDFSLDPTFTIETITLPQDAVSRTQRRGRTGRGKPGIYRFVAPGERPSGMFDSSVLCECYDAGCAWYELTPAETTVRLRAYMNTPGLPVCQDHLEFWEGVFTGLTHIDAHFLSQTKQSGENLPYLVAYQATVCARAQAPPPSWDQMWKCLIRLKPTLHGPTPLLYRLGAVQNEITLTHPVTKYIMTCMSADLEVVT

One experiment addresses T1, HCV NS3-4A serine protease (full-length NS3-4A protein, genotype 1a, strain HCV-1) (Hepatitis C virus genotype 1a, UniProt P26664).
T1 construct: using the full-length NS3-4A protein (genotype 1a, strain HCV-1)
In words: HCV NS3-4A protease assay. Format: biochemical. Conditions: Protease IC50. How it is done: The inhibitory activity of certain compounds of Table A against HCV NS3-4A serine protease is determined in a homogenous assay using the full-length NS3-4A protein (genotype 1a, strain HCV-1) and a commercially available internally-quenched fluorogenic peptide substrate as described by Taliani, M., et al. 1996 Anal. Biochem. 240:60-67, which is incorporated by reference in its entirety.
The IC50 is the concentration at which inhibition is half-maximal. As to `CC(C)(C)[C@H](NC(=O)[C@@H]1CCCCN1CCF)C(=O)N[C@H](C(=O)N1C[C@]2(C[C@H]1C(=O)NC1(C(=O)NS(=O)(=O)C3CC3)CC=CC1)C(C)(C)C21CCC1)C(C)(C)C` [Compound 24, (5R,8S)-N-{1-[(cyclopropylsulfonyl)carba-moyl]cyclopent-3-en-1-yl}-7-[(2S)-2-{[(2S)-2-({[(2S)-1-(2-fluoroethyl)piperidin-2-yl]carbonyl}amino)-3,3-dimethylbutanoyl]amino}-3,3-dimethylbutanoyl]-10,10-dimethyl-7-azadispiro[3.0.4.1]decane-8-carboxamide], the IC50 came to 5250 nM.
Still for that read-out and setting: in the case of `CC(C)N1CCCCC1C(=O)N[C@H](C(=O)N[C@H](C(=O)N1C[C@]2(C[C@H]1C(=O)N[C@]1(C(=O)NS(=O)(=O)C3CC3)CC=CCC1)C(C)(C)C21CCC1)C(C)(C)C)C1CCCCC1` (stereo partly drawn) [Compound 25, (5R,8S)-7-[(2S)-2-{[(2S)-2-cyclohexyl-2-{[(1-isopropylpiperidin-2-yl)carbonyl]amino}acetyl]amino}-3,3-dimethylbutanoyl]-N-{(1S)-1-[(cyclopropylsulfonyl)carba-moyl]cyclohex-3-en-1-yl}-10,10-dimethyl-7-azadispiro[3.0.4.1]decane-8-carboxamide] it was 550 nM; in that of `CC(C)N1CCCCC1C(=O)N[C@H](C(=O)N[C@H](C(=O)N1C[C@]2(C[C@H]1C(=O)N[C@]1(C(=O)NS(=O)(=O)C3CC3)CC=CCC1)C(C)(C)C21CCC1)C(C)(C)C)C(C)(C)C` (stereo partly drawn) [Compound 26, (5R,8S)-N-{(1S)-1-[(cyclopropylsulfonyl)carba-moyl]cyclohex-3-en-1-yl}-7-[(2S)-2-{[(2S)-2-{[(1-isopropylpiperidin-2-yl)carbonyl]amino}-3,3-dimethylbutanoyl]amino}-3,3-dimethylbutanoyl]-10,10-dimethyl-7-azadispiro[3.0.4.1]decane-8-carboxamide], 2950 nM.
`CC(C)(C)[C@H](NC(=O)[C@@H](NC(=O)C1CCCCN1CCF)C1CCCCC1)C(=O)N1C[C@]2(C[C@H]1C(=O)N[C@]1(C(=O)NS(=O)(=O)C3CC3)CC=CCC1)C(C)(C)C21CCC1` (stereo partly drawn) [Compound 27, (5R,8S)-7-[(2S)-2-{[(2S)-2-cyclohexyl-2-({[1-(2-fluoroethyl)piperidin-2-yl]carbonyl}amino)acetyl]amino}-3,3-dimethylbutanoyl]-N-{(1S)-1-[(cyclopropylsulfonyl)carba-moyl]cyclohex-3-en-1-yl}-10,10-dimethyl-7-azadispiro[3.0.4.1]decane-8-carboxamide] displayed an IC50 of 2850 nM.
The molecule `CC(C)(C)[C@H](NC(=O)C1CCCCN1CCF)C(=O)N[C@H](C(=O)N1C[C@]2(C[C@H]1C(=O)N[C@]1(C(=O)NS(=O)(=O)C3CC3)CC=CCC1)C(C)(C)C21CCC1)C(C)(C)C` (stereo partly drawn) [Compound 28, (5R,8S)-N-{(1S)-1-[(cyclopropylsulfonyl)carba-moyl]cyclohex-3-en-1-yl}-7-[(2S)-2-{[(2S)-2-({[1-(2-fluoroethyl)piperidin-2-yl]carbonyl}amino)-3,3-dimethylbutanoyl]amino}-3,3-dimethylbutanoyl]-10,10-dimethyl-7-azadispiro[3.0.4.1]decane-8-carboxamide] registered an IC50 of 3150 nM.
The same measure, in the same setting: the same measure for `C=C[C@@H]1C[C@]1(NC(=O)[C@@H]1C[C@@]2(CN1C(=O)[C@@H](NC(=O)[C@@H](NC(=O)[C@@H]1CCCCN1CCF)C1CCCCC1)C(C)(C)C)C(C)(C)C21CCC1)C(=O)NS(=O)(=O)C1CC1` [Compound 29, (5R,8S)-7-[(2S)-2-{[(2S)-2-cyclohexyl-2-({[(2S)-1-(2-fluoroethyl)piperidin-2-yl]carbonyl}amino)acetyl]amino}-3,3-dimethylbutanoyl]-N-{(1R,2S)-1-[(cyclopropylsulfonyl)carba-moyl]-2-vinylcyclopropyl}-10,10-dimethyl-7-azadispiro[3.0.4.1]decane-8-carboxamide]: 1 nM.
Same read-out and setting: the same measure for `C=C[C@@H]1C[C@]1(NC(=O)[C@@H]1C[C@@]2(CN1C(=O)[C@@H](NC(=O)[C@@H](N1CCCC1=O)C(C)(C)C)C(C)(C)C)C(C)(C)C21CCC1)C(=O)NS(=O)(=O)C1CC1` [Compound 35, (5R,8S)-N-{(1R,2S)-1-[(cyclopropylsulfonyl)carba-moyl]-2-vinylcyclopropyl}-7-[(2S)-2-{[(2S)-3,3-dimethyl-2-(2-oxopyrrolidin-1-yl)butanoyl]amino}-3,3-dimethylbutanoyl]-10,10-dimethyl-7-azadispiro[3.0.4.1]decane-8-carboxamide]: 9 nM; for `C=C[C@@H]1C[C@]1(NC(=O)[C@@H]1C[C@@]2(CN1C(=O)[C@@H](NC(=O)[C@@H](NC(=O)[C@@H]1CCCCN1C(C)C)C(C)(C)CC)C(C)(C)C)C(C)(C)C21CCC1)C(=O)NS(=O)(=O)C1CC1` [Compound 36, (5R,8S)-N-{(1R,2S)-1-[(cyclopropylsulfonyl)carba-moyl]-2-vinylcyclopropyl}-7-[(2S)-2-{[(2S)-2-({[(2S)-1-isopropylpiperidin-2-yl]carbonyl}amino)-3,3-dimethylpentanoyl]amino}-3,3-dimethylbutanoyl]-10,10-dimethyl-7-azadispiro[3.0.4.1]decane-8-carboxamide]: 1 nM.
Still for that read-out and setting: the same measure for `C=C[C@@H]1C[C@]1(NC(=O)[C@@H]1C[C@@]2(CN1C(=O)[C@@H](NC(=O)[C@@H]1CCCCCCCN3CCCC[C@H]3C(=O)N1)C(C)(C)C)C(C)(C)C21CCC1)C(=O)NS(=O)(=O)C1CC1` [Compound 38, (5R,8S)-N-{(1R,2S)-1-[(cyclopropylsulfonyl)carba-moyl]-2-vinylcyclopropyl}-7-[(2S)-3,3-dimethyl-2-({[(3S,15aS)-1-oxotetradecahydro-2H-pyrido[1,2-a][1,4]diazacyclododecin-3-yl]carbonyl}amino)butanoyl]-10,10-dimethyl-7-azadispiro[3.0.4.1]decane-8-carboxamide]: 8 nM.

Still in this experiment, the particulars now being: read-out: Protease IC50.
On to `C=C[C@@H]1C[C@]1(NC(=O)[C@@H]1C[C@@]2(CN1C(=O)[C@@H](NC(=O)N[C@H](C(=O)N(C)C)C(C)(C)C)C(C)(C)C)C(C)(C)C21CCC1)C(=O)NS(=O)(=O)C1CC1` [Compound 30, (5R,8S)-N-{(1R,2S)-1-[(cyclopropylsulfonyl)carba-moyl]-2-vinylcyclopropyl}-7-[(2S)-2-({[(1S)-1-(dimethylcarbamoyl)-2,2-dimethylpropyl]carbamoyl}amino)-3,3-dimethylbutanoyl]-10,10-dimethyl-7-azadispiro[3.0.4.1]decane-8-carboxamide], for which the half-maximal inhibitory concentration (IC50) was 8 nM.
On the same count and under the same terms, in the case of `C=C[C@@H]1C[C@]1(NC(=O)[C@@H]1C[C@@]2(CN1C(=O)[C@@H](NC(=O)N[C@H](C(=O)N1CCOCC1)C(C)(C)C)C(C)(C)C)C(C)(C)C21CCC1)C(=O)NS(=O)(=O)C1CC1` [Compound 31, (5R,8S)-N-{(1R,2S)-1-[(cyclopropylsulfonyl)carba-moyl]-2-vinylcyclopropyl}-7-[(2S)-2-({[(1S)-2,2-dimethyl-1-(morpholin-4-ylcarbonyl)propyl]carbamoyl}amino)-3,3-dimethylbutanoyl]-10,10-dimethyl-7-azadispiro[3.0.4.1]decane-8-carboxamide] it was 15 nM; in that of `C=C[C@@H]1C[C@]1(NC(=O)[C@@H]1C[C@@]2(CN1C(=O)[C@@H](NC(=O)N[C@H](C(=O)NC)C(C)(C)C)C(C)(C)C)C(C)(C)C21CCC1)C(=O)NS(=O)(=O)C1CC1` [Compound 32, (5R,8S)-N-{(1R,2S)-1-[(cyclopropylsulfonyl)carba-moyl]-2-vinylcyclopropyl}-7-[(2S)-2-({[(1S)-2,2-dimethyl-1-(methylcarbamoyl)propyl]carbamoyl}amino)-3,3-dimethylbutanoyl]-10,10-dimethyl-7-azadispiro[3.0.4.1]decane-8-carboxamide], 30 nM.
With `C=C[C@@H]1C[C@]1(NC(=O)[C@@H]1C[C@@]2(CN1C(=O)[C@@H](NC(=O)N[C@H](CC(=O)N(C)C)C(C)(C)C)C(C)(C)C)C(C)(C)C21CCC1)C(=O)NS(=O)(=O)C1CC1` [Compound 33, (5R,8S)-N-{(1R,2S)-1-[(cyclopropylsulfonyl)carba-moyl]-2-vinylcyclopropyl}-7-{(2S)-2-[({(1R)-1-[2-(dimethylamino)-2-oxoethyl]-2,2-dimethylpropyl}carbamoyl)amino]-3,3-dimethylbutanoyl}-10,10-dimethyl-7-azadispiro[3.0.4.1]decane-8-carboxamide], the IC50 amounted to 1400 nM.
On the same count and under the same terms, the same measure for `C=C[C@@H]1C[C@]1(NC(=O)[C@@H]1C[C@@]2(CN1C(=O)[C@@H](NC(=O)N[C@H](CC(=O)N1CCOCC1)C(C)(C)C)C(C)(C)C)C(C)(C)C21CCC1)C(=O)NS(=O)(=O)C1CC1` [Compound 34, (5R,8S)-N-{(1R,2S)-1-[(cyclopropylsulfonyl)carba-moyl]-2-vinylcyclopropyl}-7-[(2S)-2-({[(1R)-2,2-dimethyl-1-(2-morpholin-4-yl-2-oxoethyl)propyl]carbamoyl}amino)-3,3-dimethylbutanoyl]-10,10-dimethyl-7-azadispiro[3.0.4.1]decane-8-carboxamide]: 2150 nM.
Still for that read-out and setting: in the case of `C=C[C@@H]1C[C@]1(NC(=O)[C@@H]1C[C@@]2(CN1C(=O)[C@@H](NC(=O)NC13CC4CC(CC(C4)C1)C3)C(C)(C)C)C(C)(C)C21CCC1)C(=O)NS(=O)(=O)C1CC1` [Compound 37, (5R,8S)-7-{(2S)-2-[(adamantan-1-ylcarbamoyl)amino]-3,3-dimethylbutanoyl}-N-{(1R,2S)-1-[(cyclopropylsulfonyl)carba-moyl]-2-vinylcyclopropyl}-10,10-dimethyl-7-azadispiro[3.0.4.1]decane-8-carboxamide] it was 45 nM.
